Read-outs that look alike come from different tables or passages of the source. Square brackets hold non-standard residues; d marks the D form. Ends that are not written are not given here. Peptide text beside a SMILES is read from it.

As a reminder, the half-life is how long it takes for the measured level to halve. A low value points to rapid decline. The term EC50 denotes the concentration that produces a half-maximal response.

The nature of series [1]: In vitro peptide stability in human serum (RP-HPLC). The note with it: for half-life at 50 µg/mL: human, human serum, 25% (v/v) in RPMI; for t1/2: metabolic stability in human serum.
The next series concerns the target T1, human CMKLR1 (Homo sapiens, UniProt Q99788).
T1 construct: host or cells: HEK293A (Invitrogen), stably expressing human Gα15
T1 sequence (Q99788 1-373): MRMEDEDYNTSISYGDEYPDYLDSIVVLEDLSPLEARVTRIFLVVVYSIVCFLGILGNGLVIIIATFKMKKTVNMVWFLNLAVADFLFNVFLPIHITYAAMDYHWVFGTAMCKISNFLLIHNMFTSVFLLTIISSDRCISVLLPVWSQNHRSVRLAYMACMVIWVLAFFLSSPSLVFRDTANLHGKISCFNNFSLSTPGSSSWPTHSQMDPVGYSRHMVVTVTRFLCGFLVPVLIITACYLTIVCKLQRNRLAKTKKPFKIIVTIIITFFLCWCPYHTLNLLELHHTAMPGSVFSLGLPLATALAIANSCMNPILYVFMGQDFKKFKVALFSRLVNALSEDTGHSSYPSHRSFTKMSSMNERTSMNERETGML
The series is described as follows: Ca2+ mobilization (CellLux imaging) agonist assay in HEK293A cells expressing CMKLR1 and Gα15. The series is classed as cell-based. In outline: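 HEK293A cells co-expressing CMKLR1 and Gα15 were loaded with FLUO4-AM, and peptides were added robotically in C1 buffer (HEPES pH 7.4, 2 mM CaCl2) with 0.1% BSA. Fluorescence changes were read in duplicate wells, buffer-subtracted and normalized to background. EC50 came from amplitude–concentration plots.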

Where [2] appears, read: Ca2+ mobilization, CMKLR1, decimal comma.
[3] abbreviates: Ca2+ mobilization, CMKLR1, decimal comma, NR where no EC50 is given, read-out: EC50.

The compound `CC(C)C[C@@H](NC(=O)[C@H](Cc1c[nH]cn1)NC(=O)[C@@H](N)CO)C(=O)NCC(=O)N[C@@H](CCC(N)=O)C(=O)N[C@@H](Cc1ccccc1)C(=O)N[C@H](Cc1c[nH]c2ccccc12)C(=O)N[C@@H](Cc1ccccc1)C(=O)N[C@H](CO)C(=O)O` [compound 139] (H-SH[dL]GQF[dW]F[dS]-OH; N-terminus assumed) registered a half-life at 50 µg/mL in series [1] of 0.933 h. The max response on human CMKLR1 (setting [2]) is 1,55 DF/F0. Also, on human CMKLR1 (setting [3]), the EC50 was 104 nM.

Compound `CC(C)[C@H](N)C(=O)N1CCC[C@H]1C(=O)NCC(=O)N[C@@H](CCC(N)=O)C(=O)N[C@@H](Cc1ccc(O)cc1)C(=O)N[C@@H](C)C(=O)N[C@@H](Cc1ccccc1)C(=O)N[C@H](CO)C(=O)N[C@H](CO)C(=O)O` [compound 99] (H-VPGQYAF[dS][dS]-OH; N-terminus assumed) came in with a half-life at 50 µg/mL in series [1] of 0.717 h. Moreover, at human CMKLR1 (setting [2]), the max response was 1,7 DF/F0. Further, the EC50 on human CMKLR1 (setting [3]) turned out to be 129 nM.

In series [1], `C[C@H](NC(=O)[C@H](Cc1ccc(O)cc1)NC(=O)[C@H](CCC(N)=O)NC(=O)CNC(=O)[C@@H]1CCCN1C(=O)[C@H](CCCNC(=N)N)NC(=O)[C@@H](N)Cc1ccc(O)cc1)C(=O)N[C@@H](Cc1ccccc1)C(=O)N[C@H](CO)C(=O)O` (H-YRPGQYAF[dS]-OH; N-terminus assumed) had a half-life at 50 µg/mL of 0.35 ± 0.0667 h. For the same compound, at human CMKLR1 (intracellular calcium mobilization, HEK293 cells expressing CMKLR1, mean of three independent experiments ± SD, read-out: activity: EC50 ±SD), the EC50 is 8.62 ± 5.01 nM.

In turn, FLPGQYAFS-OH [compound 34] returned a t1/2 in series [1] of 0.467 h. On human CMKLR1 (setting [2]), the max response was 0,68 DF/F0.

YLPGQGAFP-OH [compound 49] yielded a half-life at 50 µg/mL in series [1] of 0.283 h. On human CMKLR1 (setting [2]), the max response was 0,97 DF/F0. Further, the EC50 at human CMKLR1 (setting [3]) amounted to 28.7 nM.

For `CC(C)C[C@H](NC(=O)[C@@H]1CCCN1)C(=O)N1CCC[C@H]1C(=O)NCC(=O)N[C@@H](CCC(N)=O)C(=O)N[C@H](Cc1ccccc1)C(=O)N[C@@H](C)C(=O)N[C@@H](Cc1ccccc1)C(=O)N[C@@H](Cc1ccccc1)C(=O)O` [compound 58] (H-PLPGQ[dF]AFF-OH; N-terminus assumed), the half-life at 50 µg/mL in series [1] stood at 0.55 h. The max response at human CMKLR1 (setting [2]) is recorded as 0,81 DF/F0. In addition, the EC50 at human CMKLR1 (setting [3]) stood at 286 nM.

`CC(C)C[C@H](NC(=O)[C@@H](N)Cc1ccc(O)cc1)C(=O)N1CCC[C@H]1C(=O)N[C@H](C)C(=O)N[C@@H](CCC(N)=O)C(=O)N[C@@H](Cc1ccc(O)cc1)C(=O)N[C@@H](C)C(=O)N[C@@H](Cc1ccccc1)C(=O)N[C@H](CO)C(=O)O` [compound 124] (H-YLP[dA]QYAF[dS]-OH; N-terminus assumed) gave a t1/2 in series [1] of 1.83 h. The max response on human CMKLR1 (setting [2]) was 1,75 DF/F0.

`CC(C)C[C@@H](NC(=O)[C@H](Cc1c[nH]cn1)NC(=O)[C@H](N)CO)C(=O)NCC(=O)N[C@@H](CCC(N)=O)C(=O)N[C@@H](Cc1ccc(O)cc1)C(=O)N[C@@H](C)C(=O)N[C@@H](Cc1ccccc1)C(=O)N[C@H](Cc1ccccc1)C(=O)O` [compound 140] (H-[dS]H[dL]GQYAF[dF]-OH; N-terminus assumed) had a half-life at 50 µg/mL in series [1] of 10.2 h. Further, the max response on human CMKLR1 (setting [2]) is reported as 1,49 DF/F0. Also, the EC50 at human CMKLR1 (setting [3]) is 105 nM.

On to `CC(C)C[C@H](NC(=O)[C@@H](N)Cc1ccc(O)cc1)C(=O)N1CCC[C@H]1C(=O)NCC(=O)N[C@@H](CCC(N)=O)C(=O)N[C@@H](Cc1ccccc1)C(=O)N[C@H](Cc1c[nH]c2ccccc12)C(=O)N[C@@H](Cc1ccccc1)C(=O)N[C@@H](CO)C(=O)O` [compound 41] (H-YLPGQF[dW]FS-OH; N-terminus assumed), for which the half-life at 50 µg/mL in series [1] was determined as 0.75 h. For the same compound, the max response on human CMKLR1 (setting [2]) is 0,94 DF/F0. Moreover, the EC50 at human CMKLR1 (setting [3]) turned out to be 7.23 nM.

In series [1], FLPGQYAFL-OH [compound 46] yielded a half-life at 50 µg/mL of 0.467 h. For the same compound, the max response at human CMKLR1 (setting [2]) is 1,06 DF/F0. Also, the EC50 at human CMKLR1 (setting [3]) was determined as 13.5 nM.

`CC(C)C[C@H](N)C(=O)N[C@H](Cc1ccccc1)C(=O)NCC(=O)N1CCC[C@@H]1C(=O)N[C@@H](Cc1ccc(O)cc1)C(=O)NCC(=O)N[C@H](Cc1c[nH]c2ccccc12)C(=O)N[C@H](CO)C(=O)N[C@@H](C)C(=O)O` [compound 138] (H-L[dF]G[dP]YG[dW][dS]A-OH; N-terminus assumed) yielded a half-life at 50 µg/mL in series [1] of 10.6 h. The max response at human CMKLR1 (setting [2]) is reported as 1,97 DF/F0. For the same compound, the EC50 at human CMKLR1 (setting [3]) is 104 nM.

As to `CC(C)C[C@H](NC(=O)[C@H](N)Cc1ccccc1)C(=O)N1CCC[C@H]1C(=O)NCC(=O)N[C@@H](CCC(N)=O)C(=O)N[C@@H](Cc1ccc(O)cc1)C(=O)N[C@@H](C)C(=O)N[C@@H](Cc1ccccc1)C(=O)N[C@H](Cc1ccccc1)C(=O)O` [compound 83] (H-[dF]LPGQYAF[dF]-OH; N-terminus assumed), the t1/2 in series [1] is 19.28 h. Also, the max response at human CMKLR1 (setting [2]) was 1,82 DF/F0.

The compound `CC(C)C[C@H](NC(=O)[C@H](Cc1ccccc1)NC(=O)CNC(=O)[C@@H]1CCCN1C(=O)[C@H](CC(C)C)NC(=O)[C@@H](N)Cc1ccccc1)C(=O)N[C@@H](C)C(=O)N[C@@H](CC(C)C)C(=O)N1CCC[C@@H]1C(=O)O` [compound 72] (H-FLPGFLAL[dP]-OH; N-terminus assumed) gave a half-life at 50 µg/mL in series [1] of 3.63 h. Also, on human CMKLR1 (setting [2]), the max response is reported as 0,64 DF/F0. Further, the EC50 at human CMKLR1 (setting [3]) was found to be 2610 nM.

In series [1], `CC(C)C[C@H](NC(=O)[C@H](N)Cc1ccc(O)cc1)C(=O)N1CCC[C@H]1C(=O)NCC(=O)N[C@H](Cc1c[nH]c2ccccc12)C(=O)N[C@@H](Cc1ccc(O)cc1)C(=O)N[C@@H](C)C(=O)N[C@@H](Cc1ccccc1)C(=O)N[C@H](Cc1ccccc1)C(=O)O` [compound 142] (H-[dY]LPG[dW]YAF[dF]-OH; N-terminus assumed) showed a half-life at 50 µg/mL of 7.02 h. Moreover, the max response on human CMKLR1 (setting [2]) is reported as 1,55 DF/F0. The EC50 at human CMKLR1 (setting [3]) was 128 nM.

`CC(C)C[C@H](NC(=O)[C@@H](N)Cc1ccc(O)cc1)C(=O)N1CCC[C@H]1C(=O)NCC(=O)N[C@@H](CCC(N)=O)C(=O)N[C@@H](Cc1ccc(O)cc1)C(=O)N[C@H](Cc1c[nH]c2ccccc12)C(=O)N1CCC[C@H]1C(=O)N[C@H](Cc1ccccc1)C(=O)O` [compound 126] (H-YLPGQY[dW]P[dF]-OH; N-terminus assumed) registered a half-life at 50 µg/mL in series [1] of 0.783 h. Moreover, the max response on human CMKLR1 (setting [2]) is listed as 1,33 DF/F0. Moreover, the EC50 at human CMKLR1 (setting [3]) is 21 nM.

For `CC(C)C[C@H](NC(=O)[C@H](N)Cc1ccccc1)C(=O)N1CCC[C@H]1C(=O)NCC(=O)N[C@@H](CCC(N)=O)C(=O)N[C@@H](Cc1ccc(O)cc1)C(=O)N[C@@H](C)C(=O)N[C@@H](Cc1ccccc1)C(=O)N[C@@H](Cc1ccccc1)C(=O)O` [compound 55] (H-[dF]LPGQYAFF-OH; N-terminus assumed), in series [1], the half-life at 50 µg/mL was 3.83 h. For the same compound, the max response at human CMKLR1 (setting [2]) was 0,73 DF/F0. Besides, the EC50 on human CMKLR1 (setting [3]) was 92.9 nM.

`CC(C)[C@H](NC(=O)[C@H](N)Cc1ccc(O)cc1)C(=O)N1CCC[C@H]1C(=O)NCC(=O)N[C@@H](CCC(N)=O)C(=O)N[C@@H](Cc1ccc(O)cc1)C(=O)N[C@@H](C)C(=O)N[C@@H](Cc1ccccc1)C(=O)N[C@@H](CO)C(=O)O` [compound 91] (H-[dY]VPGQYAFS-OH; N-terminus assumed) came in with a half-life at 50 µg/mL in series [1] of 2.52 h. Also, at human CMKLR1 (setting [2]), the max response is 1,58 DF/F0. On human CMKLR1 (setting [3]), the EC50 was found to be 53.6 nM.

In series [1], `CC(C)C[C@H](NC(=O)[C@@H](N)Cc1ccc(O)cc1)C(=O)N1CCC[C@H]1C(=O)NCC(=O)N[C@@H](CCC(N)=O)C(=O)N[C@@H](Cc1ccccc1)C(=O)N[C@H](Cc1ccc(O)cc1)C(=O)N[C@@H](Cc1ccccc1)C(=O)N[C@@H](CO)C(=O)O` [compound 57] (H-YLPGQF[dY]FS-OH; N-terminus assumed) displayed a half-life at 50 µg/mL of 0.433 h. Moreover, at human CMKLR1 (setting [2]), the max response was 0,89 DF/F0. Moreover, the EC50 at human CMKLR1 (setting [3]) came to 119 nM.

For `CC(C)C[C@H](NC(=O)[C@H](N)Cc1ccc(O)cc1)C(=O)N1CCC[C@H]1C(=O)NCC(=O)N[C@@H](CCC(N)=O)C(=O)N[C@@H](Cc1ccc(O)cc1)C(=O)N[C@@H](C)C(=O)N[C@@H](Cc1ccc(O)cc1)C(=O)N[C@@H](CO)C(=O)O` [compound 101] (H-[dY]LPGQYAYS-OH; N-terminus assumed), in series [1], the half-life at 50 µg/mL was determined as 1.35 h. The max response at human CMKLR1 (setting [2]) is 1,56 DF/F0. Moreover, the EC50 on human CMKLR1 (setting [3]) worked out at 140 nM.

Regarding `CC(C)C[C@H](NC(=O)[C@@H](N)Cc1ccccc1)C(=O)N1CCC[C@H]1C(=O)NCC(=O)N[C@@H](CCC(N)=O)C(=O)N[C@@H](Cc1ccccc1)C(=O)N[C@H](Cc1c[nH]c2ccccc12)C(=O)N[C@@H](Cc1ccccc1)C(=O)N[C@H](CO)C(=O)O` [compound 89] (H-FLPGQF[dW]F[dS]-OH; N-terminus assumed), in series [1], the half-life at 50 µg/mL is 1.22 h. The max response at human CMKLR1 (setting [2]) was 1,76 DF/F0. Moreover, on human CMKLR1 (setting [3]), the EC50 was 49.2 nM.

For the compound YLPGQYAFL-OH [compound 38], in series [1], the t1/2 came out at 0.45 h. The max response at human CMKLR1 (setting [2]) was 1,05 DF/F0.

Turning to `CC(C)C[C@H](NC(=O)[C@@H](N)CC(C)C)C(=O)N[C@@H](Cc1ccc(O)cc1)C(=O)N[C@H](Cc1c[nH]c2ccccc12)C(=O)N1CCC[C@H]1C(=O)N[C@@H](Cc1ccc(O)cc1)C(=O)N[C@@H](C)C(=O)N[C@@H](CCCCN)C(=O)N[C@H](CO)C(=O)O` [compound 144] (H-LLY[dW]PYAK[dS]-OH; N-terminus assumed), the half-life at 50 µg/mL in series [1] stood at 1.35 h. For the same compound, at human CMKLR1 (setting [2]), the max response is recorded as 1,56 DF/F0. Also, the EC50 at human CMKLR1 (setting [3]) stood at 145 nM.
